Results taken from patent US4564619A, “Carbostyril derivative” (Otsuka Pharmaceutical Co., Ltd., priority 1982, dated 1986).

Legend:
[1] = test system: collagen-induced aggregation in rabbit platelets; test: Inhibition of collagen-induced platelet aggregation in rabbit platelet rich plasma; type: cell-based; settings: Oryctolagus cuniculus, read-out: Inhibition rate of collagen-induced aggregation; for inhibition at 100 µM (stock): Concentration of the test compound solution 10^-4 mole; for inhibition at 10 µM (stock): Concentration of the test compound solution 10^-5 mole
In short: (§1)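 Citrated rabbit PRP adjusted to 600,000 platelets/μl with PPP, preincubated with test compound 1 min at 37° C, then challenged with ADP (solution prepared at 7.5×10^-5 M) or collagen (solution at 200 μg/ml). Aggregation followed by light transmittance; % inhibition relative to control aggregation rate.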

[2] = test system: ADP-induced aggregation in rabbit platelets; test: Inhibition of ADP-induced platelet aggregation in rabbit platelet rich plasma; type: cell-based; settings: Oryctolagus cuniculus, read-out: Inhibition rate of ADP-induced aggregation; for inhibition at 100 µM (stock): Concentration of the test compound solution 10^-4 mole; for inhibition at 10 µM (stock): Concentration of the test compound solution 10^-5 mole
In short: as §1

[3] = test system: coronary artery; test: Increased amount of the blood flow in coronary artery, intravenous administration, anesthetized dog; type: in vivo
Procedure: The change of blood flow in coronary artery and the change of blood pressure were measured by a method according to Yakura et al., [Japan Journal of Pharmacology, Vol. 57, pages 380-391 (1961)] and according to Taira, et al. [Clin. Exp. Pharmacol. Physiol., Vol. 6, pages 301-316, (1976)].
An adult bastard dog of either sex weighing 8-13 kg was anesthetized with sodium pentobarbital at the rate of 30 mg/kg by intraveneous administration, then the dog was fixed in supination and was theracotomized under a condition of forced breathing. After another intraveneous administration of sodium heparin at the rate of 500 U/kg, 100 U/kg per hour, the dog was subjected to the following experiments.
(2) Intraveneous administration
Morawitz's cannula was cannulated to the coronary sinus venosus through the auricula dextra cordis, and the blood in vein was circulated to the right carotid. The blood flow was measured by an electromagnetic blood flow meter equipped with a blood flow observation probe in the extracorporeal circulation path of the vein. The systolic force was measured by a systolometer (pick-up) placed at the left ventricle of heart, the blood pressure was measured from the femoral artery, and the heart rate was measured from the pulse. A compound to be tested was administered through the cannula being cannulated in femoral vein. The increased amount of the blood flow in coronary artery after the administration of the test compound is shown in Table 4, also the change of blood pressure is shown in Table 5.

[4] = Change of blood pressure, intravenous administration, anesthetized dog; type: in vivo; set-up: unit not given here; settings: femoral artery
In short: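 Pentobarbital-anesthetized (30 mg/kg i.v.), heparinized, thoracotomized dogs of either sex, 8-13 kg, under forced breathing; compound given via femoral vein. Coronary sinus outflow measured by electromagnetic flowmeter in an extracorporeal venous circuit to the carotid; blood pressure recorded from femoral artery.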

Row | SMILES | inhibition at 100 µM (stock) [1] [%] | inhibition at 10 µM (stock) [1] [%] | inhibition at 100 µM (stock) [2] [%] | inhibition at 10 µM (stock) [2] [%] | Increased amount of the blood flow in coronary artery ([3]; 10 micrograms/kg) [mL/min] | Increased amount of the blood flow in coronary artery ([3]; 30 micrograms/kg) [mL/min] | Increased amount of the blood flow in coronary artery ([3]; 100 micrograms/kg) [mL/min] | Increased amount of the blood flow in coronary artery ([3]; 300 micrograms/kg) [mL/min] | Change of blood pressure ([4]; 3 micrograms/kg) | Change of blood pressure ([4]; 10 micrograms/kg) | Change of blood pressure ([4]; 30 micrograms/kg) | Change of blood pressure ([4]; 100 micrograms/kg) | Change of blood pressure ([4]; 300 micrograms/kg) | Increased amount of the blood flow in coronary artery ([3]; 3 micrograms/kg) [mL/min]
1 | COC(=O)C1=C(C)NC(C)=C(C(=O)OCCCOc2ccc3c(c2)NC(=O)CC3)C1c1cccc([N+](=O)[O-])c1 (stereo not shown) [Compound 6, 7-{3-[2,6-Dimethyl-5-methoxycarbonyl-4-(3-nitrophenyl)-1,4-dihydropyridin-3-carboxy]-propoxy}-3,4-dihydrocarbostyril] | 19 | 3 | 15 | 6 | 3 | 25 | 58 | 64 | -3 | -5 | -15 | -32 | -44 | 
2 | COC(=O)C1=C(C)NC(C)=C(C(=O)OCCCOc2ccc(O)c3c2CCC(=O)N3)C1c1cccc([N+](=O)[O-])c1 (stereo not shown) [Compound 7, 5-{3-[2,6-Dimethyl-5-methoxycarbonyl-4-(3-nitrophenyl)-1,4-dihydropyridin-3-carboxy]-propoxy}-8-hydroxy-3,4-dihydrocarbostyril] | 15 | 3 | 14 | 3 |  | 1 | 15 | 47 |  | -2 | -4 | -9 | -14 | 
3 | COC(=O)C1=C(C)NC(C)=C(C(=O)OCCCOc2ccc3[nH]c(=O)ccc3c2)C1c1cccc([N+](=O)[O-])c1 (stereo not shown) [Compound 8, 6-{3-[2,6-Dimethyl-5-methoxycarbonyl-4-(3-nitrophenyl)-1,4-dihydropyridin-3-carboxy]-propoxy}carbostyril] | 99 | 27 | 76 | 10 | 1 | 2 | 12 | 56 |  |  | -3 | -16 | -33 | 
4 | COC(=O)C1=C(C)NC(C)=C(C(=O)OCCCOc2cccc3c2NC(=O)CC3)C1c1cccc([N+](=O)[O-])c1 (stereo not shown) [Compound 9, 8-{3-[2,6-Dimethyl-5-methoxycarbonyl-4-(3-nitrophenyl)-1,4-dihydropyridin-3-carboxy]-propoxy}-3,4-dihydrocarbostyril] | 16 | 2 | 12 | 7 | 17 | 47 | 66 | 81 | -14 | -28 | -36 | -41 | -36 | 4
5 | COC(=O)C1=C(C)NC(C)=C(C(=O)OCCOc2ccc3[nH]c(=O)ccc3c2)C1c1cccc([N+](=O)[O-])c1 (stereo not shown) [Compound 10, 6-{2-[2,6-Dimethyl-5-methoxycarbonyl-4-(3-nitrophenyl)-1,4-dihydropyridin-3-carboxy]-ethoxy}carbostyril] | 100 | 50 | 100 | 27 | 2 | 5 | 23 | 43 |  | -5 | -9 | -13 | -34 | 
